These results are taken from PubChem BioAssay (NCI).

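Compound exposure: 48 hours, 5 concentrations, 96-well plates. At the TGI there is no net growth.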 Some results are limits rather than exact numbers.

For one test, the system named is CAKI-1 renal. As to the kind of experiment: NCI anticancer screen, dose series, 48 h.
In the case of `COC(=O)C(C(=O)C(=O)Nc1c(Cl)cc([N+](=O)[O-])cc1Cl)c1csc(-n2nc(C3=CCCCC3)cc2-c2ccccc2)n1` (configuration not stated), the TGI is > 100 µM.
With `CCCCCCCCOCC(COC(=O)CCCCCCC)OC(=O)CCCCCCC` (configuration not stated), the TGI is > 100 µM.
As for `O=C1CC(c2ccc(Cl)cc2)=Nc2ccccc2N1`, the TGI is > 100 µM.
In the case of `CCOC(=O)c1ccc(N=Nc2ccc(N(CCC#N)CCC#N)cc2C)cc1`, the TGI was > 100 µM.

For the next test, the system named is HCC-2998 colon. Kind of test: NCI anticancer screen, dose series, 48 h.
In the case of `COC(=O)C(C(=O)C(=O)Nc1c(Cl)cc([N+](=O)[O-])cc1Cl)c1csc(-n2nc(C3=CCCCC3)cc2-c2ccccc2)n1` (configuration not stated), the TGI was > 100 µM.
Regarding `CCCCCCCCOCC(COC(=O)CCCCCCC)OC(=O)CCCCCCC` (configuration not stated), the TGI is > 100 µM.
For the molecule `O=C1CC(c2ccc(Cl)cc2)=Nc2ccccc2N1`, the TGI is > 100 µM.
For `CCOC(=O)c1ccc(N=Nc2ccc(N(CCC#N)CCC#N)cc2C)cc1`, the TGI was > 100 µM.

The test system of the next test is SNB-78 CNS. As to the kind of experiment: NCI anticancer screen, dose series, 48 h.
Turning to `COC(=O)C(C(=O)C(=O)Nc1c(Cl)cc([N+](=O)[O-])cc1Cl)c1csc(-n2nc(C3=CCCCC3)cc2-c2ccccc2)n1` (configuration not stated), the TGI was > 100 µM.
With `O=C1CC(c2ccc(Cl)cc2)=Nc2ccccc2N1`, the TGI was > 100 µM.
For `CCOC(=O)c1ccc(N=Nc2ccc(N(CCC#N)CCC#N)cc2C)cc1`, the TGI is > 100 µM.

The subject of another test is MOLT-4 leukemia. Kind of test: NCI anticancer screen, dose series, 48 h.
Consider `COC(=O)C(C(=O)C(=O)Nc1c(Cl)cc([N+](=O)[O-])cc1Cl)c1csc(-n2nc(C3=CCCCC3)cc2-c2ccccc2)n1` (configuration not stated), for which the TGI was > 100 µM.
As for `CCCCCCCCOCC(COC(=O)CCCCCCC)OC(=O)CCCCCCC` (configuration not stated), the TGI is > 100 µM.
On the same count and under the same terms, the same measure for `O=C1CC(c2ccc(Cl)cc2)=Nc2ccccc2N1`: > 100 µM; for `CCOC(=O)c1ccc(N=Nc2ccc(N(CCC#N)CCC#N)cc2C)cc1`: > 100 µM.

A further test concerns NCI-H226 lung. As to the kind of experiment: NCI anticancer screen, dose series, 48 h.
For the molecule `COC(=O)C(C(=O)C(=O)Nc1c(Cl)cc([N+](=O)[O-])cc1Cl)c1csc(-n2nc(C3=CCCCC3)cc2-c2ccccc2)n1` (configuration not stated), the TGI is > 100 µM.
Still for that read-out and setting: the same measure for `CCCCCCCCOCC(COC(=O)CCCCCCC)OC(=O)CCCCCCC` (configuration not stated): > 100 µM.
Still for that read-out and setting: as for `O=C1CC(c2ccc(Cl)cc2)=Nc2ccccc2N1`, the figure is > 100 µM; as for `CCOC(=O)c1ccc(N=Nc2ccc(N(CCC#N)CCC#N)cc2C)cc1`, > 100 µM.

The test system of the next test is SK-MEL-28 melanoma. As to the kind of experiment: NCI anticancer screen, dose series, 48 h.
On to `CCCCCCCCOCC(COC(=O)CCCCCCC)OC(=O)CCCCCCC` (configuration not stated), for which the TGI was > 100 µM.
Turning to `O=C1CC(c2ccc(Cl)cc2)=Nc2ccccc2N1`, the TGI is > 100 µM.

The next test has as its system KM12 colon. Kind of test: NCI anticancer screen, dose series, 48 h.
Regarding `COC(=O)C(C(=O)C(=O)Nc1c(Cl)cc([N+](=O)[O-])cc1Cl)c1csc(-n2nc(C3=CCCCC3)cc2-c2ccccc2)n1` (configuration not stated), the TGI is > 100 µM.
On the same count and under the same terms, the same measure for `O=C1CC(c2ccc(Cl)cc2)=Nc2ccccc2N1`: > 100 µM.
The same measure, in the same setting: the same measure for `CCOC(=O)c1ccc(N=Nc2ccc(N(CCC#N)CCC#N)cc2C)cc1`: > 100 µM.

A further test deals with NCI-H23 lung. Kind of test: NCI anticancer screen, dose series, 48 h.
`CCCCCCCCOCC(COC(=O)CCCCCCC)OC(=O)CCCCCCC` (configuration not stated): the TGI was > 100 µM.
Still for that read-out and setting: the same measure for `O=C1CC(c2ccc(Cl)cc2)=Nc2ccccc2N1`: > 100 µM; for `CCOC(=O)c1ccc(N=Nc2ccc(N(CCC#N)CCC#N)cc2C)cc1`: > 100 µM.

Another test concerns RXF 393 renal. As to the kind of experiment: NCI anticancer screen, dose series, 48 h.
As for `COC(=O)C(C(=O)C(=O)Nc1c(Cl)cc([N+](=O)[O-])cc1Cl)c1csc(-n2nc(C3=CCCCC3)cc2-c2ccccc2)n1` (configuration not stated), the TGI was > 100 µM.
Take `O=C1CC(c2ccc(Cl)cc2)=Nc2ccccc2N1`: the TGI is 61.4 µM.
With `CCOC(=O)c1ccc(N=Nc2ccc(N(CCC#N)CCC#N)cc2C)cc1`, the TGI was > 100 µM.

The subject of a further test is OVCAR-5 ovarian. As to the kind of experiment: NCI anticancer screen, dose series, 48 h.
As for `COC(=O)C(C(=O)C(=O)Nc1c(Cl)cc([N+](=O)[O-])cc1Cl)c1csc(-n2nc(C3=CCCCC3)cc2-c2ccccc2)n1` (configuration not stated), the TGI was > 100 µM.
In the case of `CCCCCCCCOCC(COC(=O)CCCCCCC)OC(=O)CCCCCCC` (configuration not stated), the TGI is > 100 µM.
On the same count and under the same terms, the same measure for `O=C1CC(c2ccc(Cl)cc2)=Nc2ccccc2N1`: > 100 µM.
For the molecule `CCOC(=O)c1ccc(N=Nc2ccc(N(CCC#N)CCC#N)cc2C)cc1`, the TGI was > 100 µM.

The next test deals with SF-295 CNS. As to the kind of experiment: NCI anticancer screen, dose series, 48 h.
`COC(=O)C(C(=O)C(=O)Nc1c(Cl)cc([N+](=O)[O-])cc1Cl)c1csc(-n2nc(C3=CCCCC3)cc2-c2ccccc2)n1` (configuration not stated): the TGI was > 100 µM.
Take `CCCCCCCCOCC(COC(=O)CCCCCCC)OC(=O)CCCCCCC` (configuration not stated): the TGI was > 100 µM.
On to `O=C1CC(c2ccc(Cl)cc2)=Nc2ccccc2N1`, for which the TGI was > 100 µM.
With `CCOC(=O)c1ccc(N=Nc2ccc(N(CCC#N)CCC#N)cc2C)cc1`, the TGI is > 100 µM.

A further test deals with LXFL 529 NSCLC. As to the kind of experiment: NCI anticancer screen, dose series, 48 h.
On to `COC(=O)C(C(=O)C(=O)Nc1c(Cl)cc([N+](=O)[O-])cc1Cl)c1csc(-n2nc(C3=CCCCC3)cc2-c2ccccc2)n1` (configuration not stated), for which the TGI is > 100 µM.
With `CCCCCCCCOCC(COC(=O)CCCCCCC)OC(=O)CCCCCCC` (configuration not stated), the TGI was > 100 µM.
Still for that read-out and setting: the same measure for `O=C1CC(c2ccc(Cl)cc2)=Nc2ccccc2N1`: > 100 µM.
As to `CCOC(=O)c1ccc(N=Nc2ccc(N(CCC#N)CCC#N)cc2C)cc1`, the TGI was > 100 µM.

The test system of another test is SW-620 colon. As to the kind of experiment: NCI anticancer screen, dose series, 48 h.
On to `COC(=O)C(C(=O)C(=O)Nc1c(Cl)cc([N+](=O)[O-])cc1Cl)c1csc(-n2nc(C3=CCCCC3)cc2-c2ccccc2)n1` (configuration not stated), for which the TGI is > 100 µM.
In the case of `CCCCCCCCOCC(COC(=O)CCCCCCC)OC(=O)CCCCCCC` (configuration not stated), the TGI was > 100 µM.
`O=C1CC(c2ccc(Cl)cc2)=Nc2ccccc2N1` had a TGI of 47.9 µM.
As for `CCOC(=O)c1ccc(N=Nc2ccc(N(CCC#N)CCC#N)cc2C)cc1`, the TGI was > 100 µM.

In a further test the test system is DMS 273 small cell lung. As to the kind of experiment: NCI anticancer screen, dose series, 48 h.
As to `COC(=O)C(C(=O)C(=O)Nc1c(Cl)cc([N+](=O)[O-])cc1Cl)c1csc(-n2nc(C3=CCCCC3)cc2-c2ccccc2)n1` (configuration not stated), the TGI was > 100 µM.
`CCCCCCCCOCC(COC(=O)CCCCCCC)OC(=O)CCCCCCC` (configuration not stated): the TGI was > 100 µM.
Take `O=C1CC(c2ccc(Cl)cc2)=Nc2ccccc2N1`: the TGI was > 100 µM.
For `CCOC(=O)c1ccc(N=Nc2ccc(N(CCC#N)CCC#N)cc2C)cc1`, the TGI was > 100 µM.

A further test concerns OVCAR-3 ovarian. As to the kind of experiment: NCI anticancer screen, dose series, 48 h.
On to `COC(=O)C(C(=O)C(=O)Nc1c(Cl)cc([N+](=O)[O-])cc1Cl)c1csc(-n2nc(C3=CCCCC3)cc2-c2ccccc2)n1` (configuration not stated), for which the TGI is > 100 µM.
With `CCCCCCCCOCC(COC(=O)CCCCCCC)OC(=O)CCCCCCC` (configuration not stated), the TGI is > 100 µM.
